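Protocol summary: plate cells (96-well), add compound at 5 concentrations, incubate 48 h, interpolate endpoints linearly. The concentration for 50% growth inhibition is given as GI50.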 Active and inactive are the calls of the source. No stated cut-off is given here; in the data, active = GI50 up to about 1.1 µM and inactive = higher.
Legend:
Test in all cases: growth of human tumour cells (NCI), 48 h
Malme-3M = test system: Malme-3M
EKVX = test system: EKVX
COLO 205 = test system: COLO 205
UACC-62 = test system: UACC-62
SF-295 = test system: SF-295
SN12C = test system: SN12C
K562 = test system: K562
SK-MEL-5 = test system: SK-MEL-5
MCF7 = test system: MCF7
NCI/ADR-RES = test system: NCI/ADR-RES
HOP-62 = test system: HOP-62
MOLT-4 = test system: MOLT-4
ACHN = test system: ACHN
U-251 = test system: U-251
MDA-N = test system: MDA-N
HCT-15 = test system: HCT-15
DU-145 = test system: DU-145
NCI-H522 = test system: NCI-H522
NCI-H460 = test system: NCI-H460

Row | Structure (SMILES) | GI50 (Malme-3M) | GI50 (EKVX) | GI50 (COLO 205) | GI50 (UACC-62) | GI50 (SF-295) | GI50 (SN12C) | GI50 (K562) | GI50 (SK-MEL-5) | GI50 (MCF7) | GI50 (NCI/ADR-RES) | GI50 (HOP-62) | GI50 (MOLT-4) | GI50 (ACHN) | GI50 (U-251) | GI50 (MDA-N) | GI50 (HCT-15) [µM] | GI50 (DU-145) | GI50 (NCI-H522) | GI50 (NCI-H460)
1 | COC(=O)[C@H](Cc1c[nH]c2ccccc12)NC(=O)c1ccccc1I | 18.7 µM (inactive) | > 100 µM (inactive) | 17.5 µM (inactive) | 18.2 µM (inactive) | 42.4 µM (inactive) | > 100 µM (inactive) | 29.3 µM (inactive) | 16.1 µM (inactive) | 37.8 µM (inactive) | 32.1 µM (inactive) | 30.5 µM (inactive) | 17.5 µM (inactive) | 17.1 µM (inactive) | 31 µM (inactive) | 8.41 µM (inactive) | > 100 | 21.8 µM (inactive) | 15.6 µM (inactive) | 24.8 µM (inactive)
2 | CCCCn1c2c(n(CCCC)c1=S)-c1c(n(CCCC)c(=S)n1CCCC)SSSS2 | 0.36 µM (active) | 1.31 µM (inactive) | 0.432 µM (active) | 1.47 µM (inactive) | 13.3 µM (inactive) | 3.1 µM (inactive) | 0.371 µM (active) | 2.09 µM (inactive) | 2.68 µM (inactive) | 15 µM (inactive) | 6.28 µM (inactive) | 0.454 µM (active) | 0.966 µM (active) | 1.99 µM (inactive) | 2.84 µM (inactive) | 0.557 | 5.42 µM (inactive) | 0.0785 µM (active) | 30.8 µM (inactive)
3 | COc1cc2c(cc1OC)C1c3ccccc3CCN1CC2 (stereo not drawn) | > 100 µM (inactive) | > 100 µM (inactive) | 58.7 µM (inactive) | 58.1 µM (inactive) | 82.6 µM (inactive) | 62.5 µM (inactive) | 57.7 µM (inactive) | 81.1 µM (inactive) | > 100 µM (inactive) | 95.7 µM (inactive) | 70.8 µM (inactive) | 78.3 µM (inactive) | > 100 µM (inactive) | 95.3 µM (inactive) | 41.1 µM (inactive) | > 100 | > 100 µM (inactive) | > 100 µM (inactive) | 94.4 µM (inactive)
4 | c1ccc2c(c1)c1c3n2-c2cc(on2)C3CCC1 (stereo not drawn) | > 100 µM (inactive) | > 100 µM (inactive) | 98.4 µM (inactive) | > 100 µM (inactive) | > 100 µM (inactive) | > 100 µM (inactive) | > 100 µM (inactive) | > 100 µM (inactive) | > 100 µM (inactive) | > 100 µM (inactive) | > 100 µM (inactive) | 70.1 µM (inactive) | > 100 µM (inactive) | > 100 µM (inactive) | > 100 µM (inactive) | > 100 | > 100 µM (inactive) | > 100 µM (inactive) | > 100 µM (inactive)
5 | Cc1ccc(C)c(NC(=O)C(Cc2c[nH]c3ccccc23)NC(=O)OCc2ccccc2)c1 (stereo not drawn) | 25.4 µM (inactive) | 14.5 µM (inactive) | 13.2 µM (inactive) | 15.9 µM (inactive) | 25.8 µM (inactive) | 24.7 µM (inactive) | 12.7 µM (inactive) | 10.8 µM (inactive) | 23.1 µM (inactive) | 11.1 µM (inactive) | 48.8 µM (inactive) | 4.52 µM (inactive) | 22.9 µM (inactive) | 17.1 µM (inactive) | 29.3 µM (inactive) | 20.9 | 13.5 µM (inactive) | 16.1 µM (inactive) | 13.7 µM (inactive)
6 | C(=C\c1cccc(/C=C/c2ccccn2)n1)/c1ccccn1 | 17.3 µM (inactive) | > 100 µM (inactive) | 39.8 µM (inactive) | 27.1 µM (inactive) | 66.2 µM (inactive) | 60.7 µM (inactive) | 47.8 µM (inactive) | 48.4 µM (inactive) | 26.6 µM (inactive) | 39.2 µM (inactive) | > 100 µM (inactive) | 31.5 µM (inactive) | 35.2 µM (inactive) | > 100 µM (inactive) | 68.2 µM (inactive) | > 100 | > 100 µM (inactive) | 13.4 µM (inactive) | > 100 µM (inactive)
7 | c1ccc(CC(Nc2cccnc2)c2ccccc2)cc1 (stereo not drawn) | 29 µM (inactive) | 24.2 µM (inactive) | 19.8 µM (inactive) | 16.6 µM (inactive) | 18.5 µM (inactive) | 20.6 µM (inactive) | 17.5 µM (inactive) | 15.7 µM (inactive) | 28.9 µM (inactive) | 21.9 µM (inactive) | 24.5 µM (inactive) | 16.4 µM (inactive) | 37.7 µM (inactive) | 19.5 µM (inactive) | 20.1 µM (inactive) | 30.3 | 29.6 µM (inactive) | 22.4 µM (inactive) | 23 µM (inactive)
